The values below come from publication PMC11555173, “Preparation and preliminary evaluation of a tritium-labeled allosteric P2X4 receptor antagonist” (Purinergic Signalling, 2024).

In assay [1] the test system is P2X4 receptor. Details: method as in PMID 36150180. The settings on record: ref [38]; cited from earlier work.
Assay [2] concerns P2X4 receptor. Details: method as in PMID 35338432. The settings on record: ref [44]; cited from earlier work.
The test system of the next assay is P2X4. Also on record: method as in PMID 30537520, PMID 34476721. The settings on record: ref [14], [36]; cited from earlier work.
Assay [3] addresses T1, human P2X4 receptor (Homo sapiens, UniProt Q99571).
T1 sequence (Q99571 1-388): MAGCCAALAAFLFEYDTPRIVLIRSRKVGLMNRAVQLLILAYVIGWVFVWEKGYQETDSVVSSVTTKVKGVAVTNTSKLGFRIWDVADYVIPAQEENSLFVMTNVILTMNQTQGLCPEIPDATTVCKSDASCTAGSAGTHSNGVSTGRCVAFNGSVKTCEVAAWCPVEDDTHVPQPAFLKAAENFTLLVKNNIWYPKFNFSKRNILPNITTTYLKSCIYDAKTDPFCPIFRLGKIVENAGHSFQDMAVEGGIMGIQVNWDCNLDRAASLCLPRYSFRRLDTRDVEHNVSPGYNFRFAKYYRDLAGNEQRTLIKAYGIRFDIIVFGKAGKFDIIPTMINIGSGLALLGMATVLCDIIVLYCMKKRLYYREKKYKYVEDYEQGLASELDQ
Details: expressed in transfected cells; host or cells: HEK293 cells, transient transfection (pQCXIN; pcDNA3.1(-) was also tried). The settings on record: ref Müller et al. [36]; cited from earlier work.

The target in assay [4] is T1, human P2X4 receptor. Nature of the assay: [3H]PSB-OR-2020 radioligand binding assay, HEK293 cell membranes expressing human P2X4 receptor. Details: expressed in transfected cells; host or cells: HEK293 cells, transient transfection (pQCXIN; pcDNA3.1(-) was also tried).
Another assay deals with T2, human P2X2 (Homo sapiens, UniProt Q9UBL9).
T2 construct: expressed in transfected cells
T2 sequence (Q9UBL9 1-471): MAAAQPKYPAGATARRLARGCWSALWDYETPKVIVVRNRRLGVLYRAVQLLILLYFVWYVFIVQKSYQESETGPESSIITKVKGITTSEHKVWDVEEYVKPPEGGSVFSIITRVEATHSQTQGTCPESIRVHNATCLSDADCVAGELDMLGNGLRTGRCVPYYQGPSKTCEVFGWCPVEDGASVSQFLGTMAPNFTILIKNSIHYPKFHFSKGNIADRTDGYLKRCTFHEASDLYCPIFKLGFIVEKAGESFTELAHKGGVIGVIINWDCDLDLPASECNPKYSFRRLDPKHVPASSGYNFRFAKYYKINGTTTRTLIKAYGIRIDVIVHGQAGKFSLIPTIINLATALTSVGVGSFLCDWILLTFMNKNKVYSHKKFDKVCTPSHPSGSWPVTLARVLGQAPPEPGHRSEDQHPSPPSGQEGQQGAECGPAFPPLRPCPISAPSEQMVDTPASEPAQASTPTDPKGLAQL
Nature of the assay: Calcium influx assay, 1321N1 astrocytoma cells stably expressing human P2X2 receptor. It counts as cell-based.

The next assay deals with T3, human P2X7 (Homo sapiens, UniProt Q99572).
T3 construct: expressed in transfected cells
T3 sequence (Q99572 1-595): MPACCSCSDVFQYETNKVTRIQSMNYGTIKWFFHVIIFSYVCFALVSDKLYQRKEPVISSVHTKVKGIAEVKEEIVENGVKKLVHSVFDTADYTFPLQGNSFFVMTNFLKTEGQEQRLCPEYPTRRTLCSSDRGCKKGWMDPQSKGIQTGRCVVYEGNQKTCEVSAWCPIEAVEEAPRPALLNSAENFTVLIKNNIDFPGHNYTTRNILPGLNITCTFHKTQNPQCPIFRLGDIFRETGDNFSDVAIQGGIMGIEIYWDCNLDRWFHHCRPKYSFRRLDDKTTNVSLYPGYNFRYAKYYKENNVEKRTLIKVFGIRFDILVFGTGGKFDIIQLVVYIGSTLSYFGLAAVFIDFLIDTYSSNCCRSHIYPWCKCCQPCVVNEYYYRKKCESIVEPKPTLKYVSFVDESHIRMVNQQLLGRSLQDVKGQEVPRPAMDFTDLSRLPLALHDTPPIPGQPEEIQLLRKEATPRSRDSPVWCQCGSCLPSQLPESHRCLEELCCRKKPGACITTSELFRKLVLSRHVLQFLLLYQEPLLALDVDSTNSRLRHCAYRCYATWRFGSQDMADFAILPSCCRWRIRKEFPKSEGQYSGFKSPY
Kind of assay: Calcium influx assay, 1321N1 astrocytoma cells stably expressing human P2X7 receptor (agonist Bz-ATP). It counts as cell-based. The settings on record: Bz-ATP 6,000 nM (EC80). How it is done: (§1) The selectivity of PSB-OR-2020 versus other P2X receptor subtypes was determined in the same type of assay using 1321N1 astrocytoma cells stably expressing the respective human P2X receptor subtype (see Table 1).
(§2) To determine the effects of the compound on P2X4, P2X2, and P2X7 receptors, the agonist-mediated increases in cytosolic Ca^2+ concentrations were measured using the fluorescent Ca^2+ chelating dye Fluo-4 acetoxymethyl ester (AM) (Thermo Fisher Scientific). On the first day, 1321N1 astrocytoma cells (45.000 cells/well) stably expressing the respective P2X receptor were seeded into a 96-well plate (No. 3340, Corning, Kennebunk, Maine, USA), and incubated at 37 °C and 10% of CO2. […]
(§3) Following the incubation, the dye solution was carefully removed, and the antagonist (dissolved in DMSO) and HBSS buffer were added to the cells. […] To activate the receptors, transparent 96-well reagent plates (Boettger, Bodenmais, Germany) containing the agonists dissolved in HBSS buffer (10-fold concentration of previously determined EC80) were prepared. The plates were measured after 30 min of preincubation with antagonist with the imaging plate reader NOVOstar (BMG Labtech GmbH, Offenburg, Germany) at 520 nm for 30 s at 0.4 s intervals.

Assay [5] concerns the target T1, human P2X4 receptor. Kind of assay: Calcium influx assay, 1321N1 astrocytoma cells stably expressing human P2X4 receptor. It counts as cell-based. Also on record: expressed in transfected cells. How it is done: Calcium influx assays using 1321N1 astrocytoma cells that stably expressed the human P2X4 receptor were performed. Concentration-dependent inhibition of ATP-induced calcium influx was observed.
as §2, §3

The target of the next assay is T4, human P2X3 (Homo sapiens, UniProt P56373).
T4 construct: expressed in transfected cells
T4 sequence (P56373 1-397): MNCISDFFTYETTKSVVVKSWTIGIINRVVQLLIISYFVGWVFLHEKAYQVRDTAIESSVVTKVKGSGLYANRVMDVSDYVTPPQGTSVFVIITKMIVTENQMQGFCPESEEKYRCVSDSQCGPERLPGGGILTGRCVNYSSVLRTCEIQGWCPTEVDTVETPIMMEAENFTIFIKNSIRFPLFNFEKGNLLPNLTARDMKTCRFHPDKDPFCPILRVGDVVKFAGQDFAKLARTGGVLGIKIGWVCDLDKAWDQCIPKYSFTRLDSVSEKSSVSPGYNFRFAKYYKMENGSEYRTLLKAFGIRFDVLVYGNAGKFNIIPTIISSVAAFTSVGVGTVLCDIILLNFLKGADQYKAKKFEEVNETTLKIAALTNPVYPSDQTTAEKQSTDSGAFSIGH
Nature of the assay: Calcium influx assay, 1321N1 astrocytoma cells stably expressing human P2X3 receptor. It counts as cell-based. As to the method: as §1, §2, §3

The target in the next assay is T5, human P2X1 (Homo sapiens, UniProt P51575).
T5 construct: expressed in transfected cells
T5 sequence (P51575 1-399): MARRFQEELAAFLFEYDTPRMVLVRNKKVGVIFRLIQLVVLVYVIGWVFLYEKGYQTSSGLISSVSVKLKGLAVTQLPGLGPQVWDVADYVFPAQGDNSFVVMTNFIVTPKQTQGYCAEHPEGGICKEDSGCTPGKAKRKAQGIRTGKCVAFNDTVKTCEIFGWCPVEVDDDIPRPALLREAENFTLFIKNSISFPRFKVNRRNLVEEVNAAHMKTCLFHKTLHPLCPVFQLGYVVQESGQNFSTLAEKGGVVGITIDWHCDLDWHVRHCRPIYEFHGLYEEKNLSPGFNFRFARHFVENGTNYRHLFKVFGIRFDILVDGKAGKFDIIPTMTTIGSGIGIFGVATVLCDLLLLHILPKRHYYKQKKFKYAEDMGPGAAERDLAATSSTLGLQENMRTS
Nature of the assay: Calcium influx assay, 1321N1 astrocytoma cells stably expressing human P2X1 receptor. The assay is classed as cell-based. How it is done:
as §1, §2, §3

The mark [6] stands for this setting: high concentration of competitor, radioligand 10 nM.
Setting [7] is: 4 °C, three independent association and dissociation experiments, read-out: kinetic KD value (koff/kon).
Setting [8] is: vs. [3H]PSB-OR-2020 (10 nM), HEK293 membranes, human P2X4, read-out: KD value, homologous competition binding.
Setting [9] is: 4 °C, radioligand 10 nM, HEK293 membranes, human P2X4.

Molecules are shown by their SMILES. “Also recorded” adds a separate entry of the source. Like-named read-outs stand apart in the source and are kept apart here.

Take `O=C1CC(=O)N(c2ccnc(-c3noc(=S)[nH]3)c2)c2ccc3ccccc3c2N1` [MRS4719]: in the assay with P2X4 receptor [1], the “effects in a murine ischemic stroke model” value was “neuroprotective and neuro-rehabilitative effects”.
As for `O=C1CC(=O)N(c2cccc(-c3noc(=S)[nH]3)c2)c2ccc3ccccc3c2N1` [NP-1815-PX], in the assay on P2X4 receptor [2], the “effects in a murine model of colitis” value is given as “improve several inflammatory parameters”.
Broadly, the IC50 is the concentration that gives 50% inhibition. In the case of `Cc1nsc(-c2ccc(C)c(NCC(=O)c3c[nH]c4ccccc34)c2)n1` [PSB-15417], the “efficacy in an animal model of neuropathic pain” value with P2X4 is given as “showing efficacy”. Also, on human P2X4 receptor [3], the half-inhibitory concentration (IC50) is 21.9 nM. Also, at human P2X4 receptor [4] (setting [6]), the “displacement of [3H]PSB-OR-2020 from its binding site” value (“displacement” for short) is “completely displaced”.
`Cc1nsc(-c2ccc(C)c(NCC(=O)N3CCc4c3cccc4[C@](C)(O)CO)c2)n1` [PSB-OR-2020, (S)-1-(4-(1,2-dihydroxypropane-2yl)indolin-1-yl)-2-((2-methyl-5-(3-methyl-1,2,4-thiadiazol-5-yl)phenyl)amino)ethane-1-one]: the IC50 is above 10000 nM at human P2X2; above 10000 nM at human P2X7; 6.32 ± 1.52 nM at human P2X4 receptor [5] (read-out: IC50 ± SEM, inhibition of ATP-induced Ca2+ influx); 2030 nM on human P2X3; above 10000 nM on human P2X1. In addition, the figures for the Kd at human P2X4 receptor [4] (setting [7]) and at human P2X4 receptor [4] (setting [8]) were 7.06 ± 3.23 nM and 20.4 ± 7.5 nM, respectively. Besides, on human P2X4 receptor [4] (homologous competition binding, HEK293 membranes, human P2X4), the Bmax value was 71.7 fmol/mg of protein. For the same compound, the concentration for half-maximal inhibition (IC50) at P2X3 receptor relative to IC50 at P2X4 receptor at human P2X3 (P2X3 vs P2X4 selectivity) was “about 300 fold”.
For `Nc1ncnc2c1ncn2[C@@H]1O[C@H](COP(=O)(O)OP(=O)(O)OP(=O)(O)O)[C@@H](O)[C@H]1O` [ATP, Adenosine 5’-triphosphate, reference compound], the “EC80 concentration of agonist” value on human P2X4 receptor [5] (human P2X4, calcium influx) was 300 nM. Further, the “displacement” value on human P2X4 receptor [4] (setting [6]) was “only slightly displaced; also recorded: does not compete”.
For `[3H]c1cc2c(c([C@](C)(O)CO)c1)CCN2C(=O)CNc1cc(-c2nc(C)ns2)c([3H])cc1C` [[^3H]PSB-OR-2020], on human P2X4 receptor [4] (setting [9]), the association half-life was 8.44 ± 2.59 min and the dissociation half-life is recorded as 20.4 ± 2.9 min. Besides, on human P2X4 receptor [4] (setting [7]), the Kd amounted to 7.06 ± 3.23 nM. Also, on human P2X4 receptor [4] (setting [8]), the Kd is 20.4 nM.
For the compound `CC(C)c1cc(Br)c(NC(=O)Nc2cccnc2)c(Br)c1` [BX430, reference compound], the “displacement” value is on record as “not or only partially be displaced” at human P2X4 receptor [4] (setting [6]) and “less than 40%” on human P2X4 receptor [4] (high concentrations of competitor, radioligand 10 nM).
